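A five-concentration, 48-hour dose response in 96-well plates underlies each endpoint, interpolated linearly between surrounding concentrations. TGI marks complete inhibition of growth.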
Tests used:
Assay in all cases: inhibition of tumour cell growth, NCI panel, 48 h
786-0 renal = tested on: 786-0 renal
A498 renal = tested on: A498 renal
A549 NSCLC = tested on: A549 NSCLC
ACHN renal = tested on: ACHN renal
CAKI-1 renal = tested on: CAKI-1 renal
CCRF-CEM leukemia = tested on: CCRF-CEM leukemia
COLO 205 colon = tested on: COLO 205 colon
DLD-1 colon = tested on: DLD-1 colon
DMS 114 small cell lung = tested on: DMS 114 small cell lung
DMS 273 small cell lung = tested on: DMS 273 small cell lung
HCC-2998 colon = tested on: HCC-2998 colon
HCT-15 colon = tested on: HCT-15 colon
HL-60(TB) leukemia = tested on: HL-60(TB) leukemia
HOP-18 NSCLC = tested on: HOP-18 NSCLC
HOP-62 NSCLC = tested on: HOP-62 NSCLC
HOP-92 NSCLC = tested on: HOP-92 NSCLC
HT29 colon = tested on: HT29 colon
IGROV1 ovarian = tested on: IGROV1 ovarian
K-562 leukemia = tested on: K-562 leukemia
KM12 colon = tested on: KM12 colon
KM20L2 colon = tested on: KM20L2 colon
LOX IMVI melanoma = tested on: LOX IMVI melanoma
LXFL 529 NSCLC = tested on: LXFL 529 NSCLC
M14 melanoma = tested on: M14 melanoma
M19-MEL melanoma = tested on: M19-MEL melanoma
MALME-3M melanoma = tested on: MALME-3M melanoma
MOLT-4 leukemia = tested on: MOLT-4 leukemia
NCI-H226 lung = tested on: NCI-H226 lung
NCI-H23 lung = tested on: NCI-H23 lung
NCI-H460 lung = tested on: NCI-H460 lung
OVCAR-3 ovarian = tested on: OVCAR-3 ovarian
OVCAR-4 ovarian = tested on: OVCAR-4 ovarian
OVCAR-5 ovarian = tested on: OVCAR-5 ovarian
RPMI-8226 leukemia = tested on: RPMI-8226 leukemia
RXF 393 renal = tested on: RXF 393 renal
RXF-631 renal = tested on: RXF-631 renal
SF-268 CNS = tested on: SF-268 CNS
SF-295 CNS = tested on: SF-295 CNS
SF-539 CNS = tested on: SF-539 CNS
SK-MEL-2 melanoma = tested on: SK-MEL-2 melanoma
SK-MEL-28 melanoma = tested on: SK-MEL-28 melanoma
SK-MEL-5 melanoma = tested on: SK-MEL-5 melanoma
SK-OV-3 ovarian = tested on: SK-OV-3 ovarian
SN12C renal = tested on: SN12C renal
SNB-75 CNS = tested on: SNB-75 CNS
SNB-78 CNS = tested on: SNB-78 CNS
SW-620 colon = tested on: SW-620 colon
U251 CNS = tested on: U251 CNS
UACC-257 melanoma = tested on: UACC-257 melanoma
UACC-62 melanoma = tested on: UACC-62 melanoma
UO-31 renal = tested on: UO-31 renal
XF 498 CNS = tested on: XF 498 CNS
EKVX NSCLC = tested on: EKVX NSCLC
HCT-116 colon = tested on: HCT-116 colon
NCI-H522 lung = tested on: NCI-H522 lung
OVCAR-8 ovarian = tested on: OVCAR-8 ovarian
SNB-19 CNS = tested on: SNB-19 CNS
SR leukemia = tested on: SR leukemia
TK-10 renal = tested on: TK-10 renal

Measured: TGI

CCOC(=O)NC1C2CC(=O)C(O2)C1OCc1ccccc1 (stereo not given)
> 100 µM: 786-0 renal | A498 renal | A549 NSCLC | ACHN renal | CAKI-1 renal | CCRF-CEM leukemia | COLO 205 colon | DLD-1 colon | DMS 114 small cell lung | DMS 273 small cell lung | HCC-2998 colon | HCT-15 colon | HL-60(TB) leukemia | HOP-18 NSCLC | HOP-62 NSCLC | HOP-92 NSCLC | HT29 colon | IGROV1 ovarian | K-562 leukemia | KM12 colon | KM20L2 colon | LOX IMVI melanoma | LXFL 529 NSCLC | M14 melanoma | M19-MEL melanoma | MALME-3M melanoma | MOLT-4 leukemia | NCI-H226 lung | NCI-H23 lung | NCI-H460 lung | OVCAR-3 ovarian | OVCAR-4 ovarian | OVCAR-5 ovarian | RPMI-8226 leukemia | RXF 393 renal | RXF-631 renal | SF-268 CNS | SF-295 CNS | SF-539 CNS | SK-MEL-2 melanoma | SK-MEL-28 melanoma | SK-MEL-5 melanoma | SK-OV-3 ovarian | SN12C renal | SNB-75 CNS | SNB-78 CNS | SW-620 colon | U251 CNS | UACC-257 melanoma | UACC-62 melanoma | UO-31 renal | XF 498 CNS

Cc1ccc(NC(=O)OCC(COc2ccc(Cl)cc2)OC(=O)Nc2ccc(C)cc2)cc1 (stereo not given)
58.4 µM: SK-MEL-2 melanoma
27.9 µM: HL-60(TB) leukemia
98.8 µM: DMS 114 small cell lung
63.8 µM: M14 melanoma
24.9 µM: RXF-631 renal
71.7 µM: HT29 colon
73.6 µM: OVCAR-4 ovarian
61.8 µM: OVCAR-3 ovarian
67.9 µM: NCI-H226 lung
60.4 µM: A498 renal | K-562 leukemia
96.9 µM: LOX IMVI melanoma | TK-10 renal
43.1 µM: RXF 393 renal
54.2 µM: MALME-3M melanoma
57 µM: CAKI-1 renal
52.3 µM: SF-539 CNS
80.6 µM: SF-295 CNS
> 100 µM: A549 NSCLC | ACHN renal | CCRF-CEM leukemia | COLO 205 colon | DLD-1 colon | EKVX NSCLC | HCC-2998 colon | HCT-116 colon | HCT-15 colon | HOP-18 NSCLC | HOP-62 NSCLC | IGROV1 ovarian | KM12 colon | KM20L2 colon | LXFL 529 NSCLC | M19-MEL melanoma | MOLT-4 leukemia | NCI-H23 lung | NCI-H460 lung | NCI-H522 lung | OVCAR-5 ovarian | OVCAR-8 ovarian | RPMI-8226 leukemia | SF-268 CNS | SK-MEL-28 melanoma | SK-MEL-5 melanoma | SK-OV-3 ovarian | SN12C renal | SR leukemia | SW-620 colon | U251 CNS | UACC-257 melanoma | UACC-62 melanoma | UO-31 renal
31 µM: HOP-92 NSCLC
36.9 µM: SNB-75 CNS
66.4 µM: DMS 273 small cell lung
57.3 µM: SNB-19 CNS
82.5 µM: SNB-78 CNS
86.7 µM: XF 498 CNS
